Measured values: US20250024872A1, “SALTY TASTE ENHANCER” (AJINOMOTO CO., INC., priority 2022, published 2025)

Test: sensory evaluation of saltiness intensity by expert panel, 1.0% sodium chloride solution
Type: in vivo
Protocol: Evaluation samples 1 to 10 were prepared by adding a cyclotene diluted solution (using propylene glycol as a solvent) to 1.0% sodium chloride solution to adjust the concentration of cyclotene in the sodium chloride solution as shown in the following Table 1. The amount of propylene glycol added was adjusted to be the same in all evaluation samples.
A panel of four experts conducted a sensory evaluation of the saltiness intensity of evaluation samples 1 to 10. The sensory evaluation was performed by the four experts, who scored each evaluation sample in 0.1 point increments based on the following evaluation scale using 1.0% sodium chloride solution, 1.025% sodium chloride solution and 1.05% sodium chloride solution as reference samples, and calculated the average score of the four experts. The four experts were previously trained to have a common understanding of the following saltiness intensity evaluation scale, such as the amount of saltiness intensity change required to cause a score change of 0.1 point.
• 0.0 points: saltiness intensity equivalent to 1.0% sodium chloride solution • 5.0 points: saltiness intensity equivalent to 1.025% sodium chloride solution • 10.0 points: saltiness intensity equivalent to 1.05% sodium chloride solution

**Q.** For `CC1=C(O)C(=O)CC1` [cyclotene], which “saltiness enhancement (in words)” value is on record?
**A.** has a saltiness enhancing action
